# Legend:
# [1] = biological target: T1, Histamine H3 receptor (Cavia porcellus, UniProt Q9JI35); experiment: Antagonist potency against histamine H3 receptor in an electrically stimulated guinea pig ileum; type: functional, tissue-based; settings: read-out: pA2 (converted)
# [2] = biological target: T1, Histamine H3 receptor; experiment: Displacement of [3H]N-alpha-methylhistamine from histamine H3 receptor in guinea pig brain
# [3] = biological target: Histamine H3 receptor (Homo sapiens, UniProt Q9Y5N1); experiment: Displacement of [3H]N-alpha-methylhistamine from histamine H3 receptor in human brain
# [4] = biological target: Cytochrome P450 2D6 (Homo sapiens, UniProt P10635); experiment: Inhibition of CYP2D6 in human liver microsomes; type: ADME, Microsome
# [5] = biological target: Histamine H1 receptor (Cavia porcellus, UniProt P31389); experiment: Displacement of [3H]N-alpha-methylhistamine from histamine H1 receptor in guinea pig brain
# Histamine H1 receptor, sequence (P31389 whole entry): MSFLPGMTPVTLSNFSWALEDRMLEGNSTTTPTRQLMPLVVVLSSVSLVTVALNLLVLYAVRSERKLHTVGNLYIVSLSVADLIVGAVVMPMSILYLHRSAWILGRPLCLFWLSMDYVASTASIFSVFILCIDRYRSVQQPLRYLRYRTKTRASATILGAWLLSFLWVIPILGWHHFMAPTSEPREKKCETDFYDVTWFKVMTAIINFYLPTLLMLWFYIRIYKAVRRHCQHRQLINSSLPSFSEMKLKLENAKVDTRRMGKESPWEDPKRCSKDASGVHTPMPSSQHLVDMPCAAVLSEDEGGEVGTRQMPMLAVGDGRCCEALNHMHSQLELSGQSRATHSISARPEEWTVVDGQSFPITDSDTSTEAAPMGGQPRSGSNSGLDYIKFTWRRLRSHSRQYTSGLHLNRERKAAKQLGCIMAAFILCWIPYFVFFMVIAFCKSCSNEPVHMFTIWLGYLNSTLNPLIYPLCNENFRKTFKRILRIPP
# Histamine H3 receptor (Homo sapiens, UniProt Q9Y5N1), sequence (Q9Y5N1 whole entry): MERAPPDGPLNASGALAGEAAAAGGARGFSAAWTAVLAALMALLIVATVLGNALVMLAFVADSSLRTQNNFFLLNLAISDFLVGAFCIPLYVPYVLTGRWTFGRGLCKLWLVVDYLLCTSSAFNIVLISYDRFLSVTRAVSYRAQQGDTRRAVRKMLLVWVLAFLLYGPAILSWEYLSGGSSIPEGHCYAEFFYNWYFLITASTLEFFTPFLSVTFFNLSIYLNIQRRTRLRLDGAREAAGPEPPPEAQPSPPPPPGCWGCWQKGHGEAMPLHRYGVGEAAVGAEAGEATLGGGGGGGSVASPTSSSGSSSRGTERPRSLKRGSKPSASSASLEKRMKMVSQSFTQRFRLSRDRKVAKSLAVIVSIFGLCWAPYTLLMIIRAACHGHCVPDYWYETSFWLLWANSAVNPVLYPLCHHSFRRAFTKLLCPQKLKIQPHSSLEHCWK
# T1 sequence (Q9JI35 whole entry): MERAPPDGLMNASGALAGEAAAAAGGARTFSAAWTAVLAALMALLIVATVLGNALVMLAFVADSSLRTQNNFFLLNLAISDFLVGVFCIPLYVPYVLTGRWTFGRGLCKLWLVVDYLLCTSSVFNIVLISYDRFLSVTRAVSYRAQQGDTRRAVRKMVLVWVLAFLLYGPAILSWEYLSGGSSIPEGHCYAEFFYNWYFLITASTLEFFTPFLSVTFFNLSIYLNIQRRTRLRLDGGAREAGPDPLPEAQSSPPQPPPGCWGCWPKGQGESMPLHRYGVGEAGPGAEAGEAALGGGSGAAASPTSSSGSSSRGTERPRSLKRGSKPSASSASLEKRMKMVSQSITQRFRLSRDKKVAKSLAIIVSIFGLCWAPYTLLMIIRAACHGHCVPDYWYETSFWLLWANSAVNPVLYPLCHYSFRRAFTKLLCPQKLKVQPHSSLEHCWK
# Cytochrome P450 2D6, sequence (P10635 whole entry): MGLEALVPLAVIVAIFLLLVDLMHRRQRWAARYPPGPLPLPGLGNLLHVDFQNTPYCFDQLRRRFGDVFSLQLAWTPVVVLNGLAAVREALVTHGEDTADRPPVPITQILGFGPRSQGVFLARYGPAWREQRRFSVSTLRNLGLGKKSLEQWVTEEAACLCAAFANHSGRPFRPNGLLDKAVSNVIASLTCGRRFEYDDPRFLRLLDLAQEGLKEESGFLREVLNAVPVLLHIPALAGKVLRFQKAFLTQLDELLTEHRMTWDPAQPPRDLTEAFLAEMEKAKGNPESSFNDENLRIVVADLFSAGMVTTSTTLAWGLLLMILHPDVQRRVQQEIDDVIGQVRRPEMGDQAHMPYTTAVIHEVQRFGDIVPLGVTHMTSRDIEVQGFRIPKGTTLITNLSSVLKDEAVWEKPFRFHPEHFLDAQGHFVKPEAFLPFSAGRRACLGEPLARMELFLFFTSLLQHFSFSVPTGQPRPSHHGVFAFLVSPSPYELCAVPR
Structure (SMILES),Kb [1] [nM],Ki [2] [nM],also measured
COC(=O)c1ccc(OCCC(=O)N2CCC(Cc3c[nH]cn3)CC2)cc1,,625,
O=C(NCCCN1CCC(Cc2cnc[nH]2)CC1)c1ccc(Cl)cc1,,13,
O=C(CCCc1ccccc1)N1CCC(Cc2cnc[nH]2)CC1,15.8,9,
O=C(CCN1CCC(Cc2c[nH]cn2)CC1)Nc1cccc(Cl)c1,0.158,,Ki [3]: 0.4 nM
CN(C(=O)CCN1CCC(Cc2cnc[nH]2)CC1)c1ccc(Cl)cc1,,60,
c1ccc(OCCCN2CCC(Cc3c[nH]cn3)CC2)cc1,5.01,,
CCCCCCC(=O)N1CCC(Cc2c[nH]cn2)CC1,39.8,18,
O=C(CCC(=O)N1CCC(Cc2c[nH]cn2)CC1)Nc1ccc(Cl)cc1,,970,
O=C(CCCN1CCC(Cc2cnc[nH]2)CC1)Nc1ccc(Cl)cc1,5.01,17,
Clc1ccc(CCCCN2CCC(Cc3cnc[nH]3)CC2)cc1,1.58,6,
O=C(CCN1CCC(Cc2c[nH]cn2)CC1)Nc1ccc(Cl)cc1,0.0794,,Ki [3]: 1.7 nM; Ki [5]: 290 nM; IC50 [4]: 40 nM
N#Cc1ccc(OCCCN2CCC(Cc3c[nH]cn3)CC2)cc1,,20,
O=C(NCCN1CCC(Cc2cnc[nH]2)CC1)c1ccc(Cl)cc1,12.6,9,
O=C(CCN1CCC(Cc2c[nH]cn2)CC1)NCc1ccc(Cl)cc1,,21,
O/N=C/c1ccc(OCCCN2CCC(Cc3c[nH]cn3)CC2)cc1,,44,
O=S(=O)(CCCN1CCC(Cc2c[nH]cn2)CC1)c1ccccc1,79.4,25,
O=C(CCOc1ccccc1)N1CCC(Cc2cnc[nH]2)CC1,15.8,,
CCCCCCCN1CCC(Cc2cnc[nH]2)CC1,2.51,,
O=C(CCCCN1CCC(Cc2cnc[nH]2)CC1)Nc1ccc(Cl)cc1,,40,
O=S(=O)(CCN1CCC(Cc2c[nH]cn2)CC1)Nc1ccc(Cl)cc1,,170,

# More lines, in order of falling Ki [2], values ahead:
Kb [1] [nM],Ki [2] [nM],Structure (SMILES),also measured
6.31,5,c1ccc(CCCCN2CCC(Cc3cnc[nH]3)CC2)cc1,
6.31,3,O=C(CCN1CCC(Cc2cnc[nH]2)CC1)NC1CCCCC1,
1.58,3,COc1ccc(NC(=O)CCN2CCC(Cc3cnc[nH]3)CC2)cc1,
1.58,3,COC(=O)c1ccc(NC(=O)CCN2CCC(Cc3cnc[nH]3)CC2)cc1,
3.98,2,Clc1cccc(NCCCN2CCC(Cc3cnc[nH]3)CC2)c1,
12.6,2,Clc1cccc(OCCCN2CCC(Cc3cnc[nH]3)CC2)c1,
1.26,2,O=C(CCN1CCC(Cc2c[nH]cn2)CC1)Nc1ccccc1,
,0.4,c1nc(CC2CCNCC2)c[nH]1 [IMMEPIP],
0.126,0.2,O=C(CCN1CCC(Cc2c[nH]cn2)CC1)Nc1cccc(F)c1,Ki [3]: 1.9 nM; IC50 [4]: 100 nM

# Reference: ChEMBL document CHEMBL1147768, “Novel histamine H3 receptor antagonists based on the 4-[(1H-imidazol-4-yl)methyl]piperidine scaffold” (Bioorg Med Chem Lett, 2006)
